Broadly, the AC50 is the concentration giving half of the maximal activity seen. Broadly, the IC50 is the point on the concentration scale where inhibition reaches its midpoint. Usually EC50 stands for the concentration at which the effect is half-maximal.

These results are taken from ChEMBL document CHEMBL1201862, “PubChem BioAssay data set” (2004).

Active and inactive are the calls of the source.

Experiment [1] in a line: non-specific 3'UTR reporter inhibition in Clone20-Shn3RL – cell-based, Renilla luciferase, cherry-picked, counter-screen for Shn3 inhibitor project, dose response (AID 624133). It is filed as functional. For orientation: A counterscreen serves to expose hits that act by an unwanted route or on another target.
The nature of experiment [2]: Luminescence-based dose response cell-based high throughput screening assay for cytotoxic compounds using the IEC-6 intestinal epithelial cell line. [Related pubchem assays: 1858 (Summary AID.), 1825 (Counterscreen.), 1907 (Confirmation screen.)]. It is filed as functional.
In experiment [3] the test system is BJ. In words: growth inhibition of engineered Ras-driven BJ cells – cell-based, alamar blue fluorescence, cherrypicked samples, dose response (AID 2631).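 Also: confirmatory dose-response assay in RAS-dependent BJ fibroblasts engineered with TERT, LT and ST, with cytotoxicity read by fluorescence.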 It is filed as functional. The settings on record: Homo sapiens. For orientation: Resazurin is reduced to fluorescent resorufin, in cell work by metabolically active cells.
A short description of experiment [4]: NIH-3T3 fibroblast cytotoxicity, dose response, cytotoxicity control, cell-based, fluorescence, Alamar Blue, secondary assay (AID 2327).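 Also: NIH-3T3 mouse fibroblasts cultured with fluconazole at 8 µg/mL.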 It is filed as functional.
Experiment [5] can be described thus: reduction of Shn3 3'UTR-driven luciferase in osteoblasts – cell-based, Clone20 osteoblasts, firefly luciferase, cherry-picked, dose response (AID 624132).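 Also: firefly luciferase luminescence from reporter carrying the Shn3 3'UTR in osteoblasts.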 It counts as functional.
Experiment [6] addresses Nonstructural protein 1 (Influenza A virus, UniProt Q194T2). It counts as functional, Influenza A virus (A/California/07/2009(H1N1)).
Experiment [7] in a line: HEK-293T viability loss after treatment – luminescence, T-cell screen hits, cytotoxicity control for TCR NF-kB inhibitor project, dose response (AID 489026).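 Also: cells exposed to compound about 14 hours before the viability readout.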 It counts as functional, cell-based.
The nature of experiment [8]: fluconazole-exposed Candida albicans growth modulators – fluorescence, retest, confirmation (AID 2467). It is filed as functional, cell-based.
For experiment [9], the system named is BJ. In words: BJ-TERT-LT-ST fibroblast viability loss – cell-based, RAS-independent, luminescence, dose response (AID 1935).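 Also: BJ fibroblasts immortalized with TERT plus LT and ST oncogenes.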 The settings on record: Homo sapiens. It counts as functional.
Experiment [10] has as its target T1, Serine/threonine-protein phosphatase (Candida dubliniensis (strain CD36 / CBS 7987 / NCPF 3949 / NRRLY-17841) (Yeast), UniProt B9W6M3).
T1 sequence (B9W6M3 whole entry): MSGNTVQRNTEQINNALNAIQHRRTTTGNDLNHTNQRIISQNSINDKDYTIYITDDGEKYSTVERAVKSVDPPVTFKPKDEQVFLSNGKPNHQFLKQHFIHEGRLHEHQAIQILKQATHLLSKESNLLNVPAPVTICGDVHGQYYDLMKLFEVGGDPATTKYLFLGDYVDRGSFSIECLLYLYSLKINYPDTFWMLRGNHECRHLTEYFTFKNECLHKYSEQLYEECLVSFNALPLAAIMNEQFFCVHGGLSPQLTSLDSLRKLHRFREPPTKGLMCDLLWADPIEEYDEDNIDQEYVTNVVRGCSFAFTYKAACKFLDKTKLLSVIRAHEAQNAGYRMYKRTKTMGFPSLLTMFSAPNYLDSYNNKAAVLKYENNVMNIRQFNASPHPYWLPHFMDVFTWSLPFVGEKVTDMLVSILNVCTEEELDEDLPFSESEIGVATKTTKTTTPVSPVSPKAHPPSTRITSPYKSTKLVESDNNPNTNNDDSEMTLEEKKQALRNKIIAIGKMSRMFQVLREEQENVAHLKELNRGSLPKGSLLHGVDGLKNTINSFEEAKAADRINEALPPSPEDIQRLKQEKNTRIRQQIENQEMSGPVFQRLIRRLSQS
In words: blockers of CaCl2-induced CDRE-lacZ signaling – S. cerevisiae, luminescence, secondary, dose response (AID 2388).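 Also: yeast reporter cells carrying a calcineurin-responsive lacZ construct stimulated with calcium chloride; luminescent beta-galactosidase reporter signal in whole cells rather than isolated phosphatase activity; potency for inhibition where a drop in reporter signal means calcineurin blockade.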 It is filed as functional, cell-based.

Experiment [11] can be described thus: DRD fibroblast viability loss – cell-based, non-viral oncogenic, luminescence, dose response (AID 1934). It counts as functional. The settings on record: Homo sapiens.
Experiment [12] has as its system HEK293. Put plainly: HEK293T cell viability loss, resazurin readout – resazurin fluorescence, cytotoxicity control for NF-kB activator project, SAR follow-up (AID 493251). As to conditions: Homo sapiens. It is filed as functional, cell-based.
In experiment [13] the target is ATP-dependent molecular chaperone HSP82 (Candida albicans (strain WO-1) (Yeast), UniProt C4YTQ8). In words: steroid-induced GRE reporter decrease in yeast – S. cerevisiae, luminescence, Hsp90 inhibitor project, dose response (AID 2400).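 Also: beta-galactosidase luminescence from glucocorticoid response element reporter as proxy for Hsp90 function; inhibitor potency where signal loss means Hsp90 inhibition.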 It counts as functional, cell-based.
In experiment [14] the test system is INS1. Put plainly: INS-1E survival protection against cytokine death – cell-based, luminescence, retest, dose response (AID 449756).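 Also: cell death triggered by IL-1 beta plus TNF-alpha plus IFN-gamma mixture; protective hits raise ATP signal compared with cytokine alone wells.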 It counts as functional. As to conditions: Rattus norvegicus.
Experiment [15] addresses T2, Sentrin-specific protease 6 (Homo sapiens, UniProt Q9GZR1).
T2 sequence (Q9GZR1 whole entry): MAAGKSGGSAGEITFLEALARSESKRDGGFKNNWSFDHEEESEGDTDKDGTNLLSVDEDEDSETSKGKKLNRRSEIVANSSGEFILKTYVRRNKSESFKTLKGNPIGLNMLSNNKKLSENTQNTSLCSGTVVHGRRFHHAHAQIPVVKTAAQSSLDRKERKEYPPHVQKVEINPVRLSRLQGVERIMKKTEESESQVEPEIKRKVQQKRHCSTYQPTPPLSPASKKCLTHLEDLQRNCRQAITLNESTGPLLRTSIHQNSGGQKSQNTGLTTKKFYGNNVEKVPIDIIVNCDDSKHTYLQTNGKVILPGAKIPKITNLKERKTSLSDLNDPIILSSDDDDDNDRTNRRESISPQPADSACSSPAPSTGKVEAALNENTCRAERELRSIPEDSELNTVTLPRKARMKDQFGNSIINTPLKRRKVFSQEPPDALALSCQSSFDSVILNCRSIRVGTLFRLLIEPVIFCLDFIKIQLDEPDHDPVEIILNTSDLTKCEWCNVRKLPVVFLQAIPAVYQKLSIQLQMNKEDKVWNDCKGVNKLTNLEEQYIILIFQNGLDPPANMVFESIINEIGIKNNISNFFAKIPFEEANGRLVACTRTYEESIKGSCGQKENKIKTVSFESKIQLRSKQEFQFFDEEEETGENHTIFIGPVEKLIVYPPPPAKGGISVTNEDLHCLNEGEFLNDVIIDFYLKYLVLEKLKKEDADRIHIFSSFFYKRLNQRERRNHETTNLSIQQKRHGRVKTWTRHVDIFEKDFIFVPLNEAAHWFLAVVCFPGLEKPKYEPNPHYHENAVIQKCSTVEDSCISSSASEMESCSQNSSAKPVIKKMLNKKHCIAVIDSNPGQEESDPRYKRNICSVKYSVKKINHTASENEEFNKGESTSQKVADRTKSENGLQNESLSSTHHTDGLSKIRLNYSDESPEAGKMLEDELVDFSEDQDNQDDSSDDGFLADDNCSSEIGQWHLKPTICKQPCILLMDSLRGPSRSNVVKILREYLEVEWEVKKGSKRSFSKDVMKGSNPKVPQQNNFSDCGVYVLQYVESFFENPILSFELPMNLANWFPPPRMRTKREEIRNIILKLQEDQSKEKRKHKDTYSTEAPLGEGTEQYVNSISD
It is filed as functional.

Experiment [16] concerns the target Caspase-7 (Homo sapiens, UniProt P55210). In words: caspase-7 enzyme inhibition, selectivity check – biochemical, DEVD-R110 fluorescence, cherry-pick, selectivity assay for caspase-6 inhibitor project, dose response (AID 743295). It is filed as functional.

Sequence of ATP-dependent molecular chaperone HSP82 (C4YTQ8 whole entry): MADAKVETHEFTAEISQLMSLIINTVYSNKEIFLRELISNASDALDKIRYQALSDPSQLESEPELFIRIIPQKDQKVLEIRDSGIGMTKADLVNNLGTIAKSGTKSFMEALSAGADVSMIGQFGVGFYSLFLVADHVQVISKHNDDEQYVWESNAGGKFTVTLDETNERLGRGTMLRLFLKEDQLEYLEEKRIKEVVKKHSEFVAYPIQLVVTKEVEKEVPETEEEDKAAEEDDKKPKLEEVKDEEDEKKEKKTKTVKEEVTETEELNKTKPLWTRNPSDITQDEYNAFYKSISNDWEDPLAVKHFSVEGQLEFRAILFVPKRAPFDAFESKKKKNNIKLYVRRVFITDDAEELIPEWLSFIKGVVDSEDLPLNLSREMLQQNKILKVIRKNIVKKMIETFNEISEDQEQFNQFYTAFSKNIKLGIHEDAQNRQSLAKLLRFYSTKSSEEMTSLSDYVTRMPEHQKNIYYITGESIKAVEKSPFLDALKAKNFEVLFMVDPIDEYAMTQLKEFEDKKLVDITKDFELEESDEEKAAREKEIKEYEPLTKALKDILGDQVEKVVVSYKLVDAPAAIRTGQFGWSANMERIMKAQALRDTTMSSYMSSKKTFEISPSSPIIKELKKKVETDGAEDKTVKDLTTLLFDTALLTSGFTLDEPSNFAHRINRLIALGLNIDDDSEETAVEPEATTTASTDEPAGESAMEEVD
Sequence of Nonstructural protein 1 (Q194T2 whole entry): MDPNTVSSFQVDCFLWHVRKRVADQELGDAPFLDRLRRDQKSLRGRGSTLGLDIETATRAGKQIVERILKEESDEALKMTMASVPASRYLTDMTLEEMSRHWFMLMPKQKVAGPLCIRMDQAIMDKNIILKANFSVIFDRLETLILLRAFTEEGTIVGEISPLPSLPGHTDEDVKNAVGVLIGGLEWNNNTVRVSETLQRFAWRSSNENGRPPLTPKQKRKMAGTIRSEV
Sequence of Caspase-7 (P55210 24-198 limits assumed): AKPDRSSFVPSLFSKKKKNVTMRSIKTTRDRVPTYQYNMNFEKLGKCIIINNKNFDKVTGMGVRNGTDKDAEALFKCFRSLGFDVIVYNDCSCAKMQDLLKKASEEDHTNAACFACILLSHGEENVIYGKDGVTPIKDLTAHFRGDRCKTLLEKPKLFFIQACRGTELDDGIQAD
Sequence of Caspase-7 (P55210 207-303 limits assumed): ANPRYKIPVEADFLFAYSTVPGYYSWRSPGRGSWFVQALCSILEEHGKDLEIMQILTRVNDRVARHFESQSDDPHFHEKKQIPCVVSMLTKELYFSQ

For the compound `CCCCC(=O)NC(c1ccc(N(C)C)cc1)c1ccc2cccnc2c1O` (stereo unspecified), the AC50 in experiment [1] is > 70 µM (inactive); in experiment [5], 0.98 µM (active); in experiment [14], 0.626 µM (active). In addition, the IC50 was 1.72 µM (active) in [2], 24.9 µM (active) in [6], > 80 µM (inactive) in experiment [7] and 41.2 µM (inactive) in [12]. Besides, the concentration for a half-maximal effect (EC50) in [3] was 0.465 µM (active); in experiment [4], 28.4 µM (inconclusive); in experiment [8], 0.832 µM (active); in [9], 3.17 µM (inconclusive); in experiment [10], > 180 µM (inactive); in [11], 2.51 µM (active). In addition, in [13], the EC50 is > 160 µM (inactive).
For `CN(CC(=O)Nc1ccccc1Cl)C(=O)COC(=O)c1ccc([N+](=O)[O-])s1`, the concentration for half-maximal inhibition (IC50) in [15] was 4.72 µM (active). In [16], the concentration at half-maximal activity (AC50) was 20.6 µM (active).
